Measurements from patent US20250074908A1, “SALT OF ROCK INHIBITOR, CRYSTAL FORM OF SALT, COMPOSITION, AND PHARMACEUTICAL USE” (WUHAN CREATERNA SCIENCE AND TECHNOLOGY CO., LTD., priority 2022, published 2025).

What was measured:
[1] = In-vitro cytotoxicity assay, CCK-8 method; type: cell-based; conditions: human, HepG2 cells
Method: In-vitro cytotoxicity assay for compound I was performed in HepG2 cells using the CCK-8 method. HepG2 cells (Beina Bio) in the logarithmic growth phase were collected, the concentration of cell suspension was adjusted, and then the cells were plated on a 96-well cell culture plate at 50000 cells/well. The cells were then incubated in a cell incubator (5%, 37° C.) overnight. After 80%-90% cell confluence in the plate was achieved, medium change was performed, and then the test compound at each concentration gradient or vehicle (DMSO) was added. The resulting mixture was incubated in the cell incubator (5%, 37° C.) for 48 h. After the treatment was completed, the medium in the plate was discarded. The plate was washed twice with PBS, and a CCK-8 working solution (Beyotime) was added at 100 μL per well. The resulting mixture was then incubated at 37° C. for 1.5 h in the dark. The absorbance at OD450 nm was measured for each well on a microplate reader, and the CC50 value of each compound was analyzed and calculated.

[2] = Pharmacokinetic study in rats; type: in vivo, SD rats; conditions: male, SD, rat, in vivo, po, 10 mg/kg
Method: Compound I, 2-hydroxyethanesulfonate of compound I, ethanesulfonate (crystal form I) of compound I, tartrate of compound I, and sulfate of compound I were each accurately weighed, and the required volume of vehicle was added. The mixture was stirred for 5 min, then sonicated below 25° C. until no large particles were visible to the naked eye, and further stirred for 30 min until a homogeneous suspension was obtained. The suspension was then used for administration.
Male SPF-grade SD rats (Beijing Vital River Laboratory Animal Technology Co., Ltd.) were given compound I, the 2-hydroxyethanesulfonate of compound I, the ethanesulfonate of compound I (crystal form I), the tartrate of compound I, and the sulfate of compound I by single intragastric administration after an acclimation period (with free access to water and food). Blood was collected from the orbital venous plexus of the rats at 0.167 h, 0.5 h, 1 h, 2 h, 3 h, 4 h, 6 h, 9 h, 12 h, and 24 h after administration. Each blood sample was centrifuged at 3500×g for 10 min at 4° C. The supernatant was then collected, and the concentration of compound I in the plasma was measured by LC-MS/MS (AB Sciex TRIPLE QUAD 3500). The data were analyzed using a non-compartmental model in WinNonlin (version 5.2.1 Pharsight, Mountain View, CA) to obtain PK parameters.

ROCK2 kinase = biological target: T1, ROCK2 kinase (Homo sapiens, UniProt O75116); assay: In-vitro evaluation of ROCK2 kinase activity (HTRF KinEASE-STK); type: biochemical
T1 construct: purchased Invitrogen PV3759
Method: ROCK2 activity screening: ROCK2 activity was detected using a 96-well (Cisbio) time-resolved fluorometric assay. The assay for ROCK2 was performed in the following assay buffer: 5 mM MgCl2 (Sigma), 1 mM DTT (Sigma), and 1× kinase buffer. The kinase buffer was used for dilution. 7.5 μL of ROCK2 kinase (Invitrogen, PV3759) was first added to a 96-well microplate to achieve a final concentration of 0.4 ng/μL, and then […] of compound I (DMSO content: 1% (volume fraction)) was added. The mixture was incubated at room temperature for 0.5 h. To start the reaction, the kinase buffer was used to mix ATP (Aladdin) and the substrate STK-substrate 2-biotin. 7.5 μL of the mixed solution was added to the microplate to achieve final concentrations of 6.739 μM and 1 μM. The resulting mixture was incubated at room temperature for another 2 h. 5 mL of detection buffer was mixed with STK antibody-Cryptate, and then an appropriate volume of the mixture was mixed with an equal volume of streptavidin-XL665. 10 μL of the resulting mixture was added to the microplate to stop the reaction. After further incubation for about 1 h, the microplate was read on a Molecular Devices Spectra Max i3x multifunctional microplate reader. […]

ROCK1 kinase = biological target: T2, ROCK1 kinase (Homo sapiens, UniProt Q13464); assay: In-vitro evaluation of ROCK1 kinase selectivity (HTRF KinEASE-STK); type: biochemical
T2 construct: purchased Invitrogen
Method: ROCK1 activity was detected using a 96-well (Cisbio) time-resolved fluorometric assay. The assay for ROCK1 was performed in the following assay buffer: 5 mM MgCl2 (Sigma), 1 mM DTT (Sigma), and 1× kinase buffer. The kinase buffer was used for dilution. 7.5 μL of ROCK1 kinase (Invitrogen) was first added to a 96-well microplate to achieve a final concentration of 0.4 ng/μL, and then 0.25 μL of the compound (DMSO content: 1%) was added. The mixture was incubated at room temperature for 0.5 h. To start the reaction, the kinase buffer was also used to mix ATP (Aladdin) and the substrate STK-substrate 2-biotin. 7.5 μL of the mixed solution was added to the microplate to achieve final concentrations of 3.53 μM and 1 μM. The resulting mixture was incubated at room temperature for another 2 h. 5 mL of detection buffer was mixed with STK antibody-Cryptate, and then an appropriate volume of the mixture was mixed with an equal volume of streptavidin-XL665. 10 μL of the resulting mixture was added to stop the reaction. After further incubation for about 1 h, the microplate was read on a Molecular Devices SpectraMax i3x multifunctional microplate reader. The kinase buffer, the STK-substrate 2-biotin, the detection buffer, the STK antibody-Cryptate, and the streptavidin-XL665 were all from HTRF KinEASE-STK kit (Cisbio, 1000 tests, 61GSTXLA).

[3] = Chemical stability on storage up to 3 months (HPLC purity), Table 13-4; type: physicochemical; conditions: for Purity (%), 230 nm, Month 1 / Purity (%), 230 nm, Month 3: sealed and protected from light
Method: B) The HPLC method used for the stability study was as follows:
The vials were sealed with tin foil and then separately placed under the conditions of 40° C. temperature/75% humidity or 25° C. temperature/60% humidity for about 3 months. The samples after being placed for 0 months, 2 weeks, 1 month and 3 months were taken and each dissolved in a diluent to prepare a solution at about 1.0 mg/mL, which was then tested for chemical stability by HPLC analysis using Shimadzu LC-20ADxr.

[4] = as above; type: physicochemical; conditions: 40° C./75% humidity, sealed and protected from light

T1 sequence (O75116 whole entry): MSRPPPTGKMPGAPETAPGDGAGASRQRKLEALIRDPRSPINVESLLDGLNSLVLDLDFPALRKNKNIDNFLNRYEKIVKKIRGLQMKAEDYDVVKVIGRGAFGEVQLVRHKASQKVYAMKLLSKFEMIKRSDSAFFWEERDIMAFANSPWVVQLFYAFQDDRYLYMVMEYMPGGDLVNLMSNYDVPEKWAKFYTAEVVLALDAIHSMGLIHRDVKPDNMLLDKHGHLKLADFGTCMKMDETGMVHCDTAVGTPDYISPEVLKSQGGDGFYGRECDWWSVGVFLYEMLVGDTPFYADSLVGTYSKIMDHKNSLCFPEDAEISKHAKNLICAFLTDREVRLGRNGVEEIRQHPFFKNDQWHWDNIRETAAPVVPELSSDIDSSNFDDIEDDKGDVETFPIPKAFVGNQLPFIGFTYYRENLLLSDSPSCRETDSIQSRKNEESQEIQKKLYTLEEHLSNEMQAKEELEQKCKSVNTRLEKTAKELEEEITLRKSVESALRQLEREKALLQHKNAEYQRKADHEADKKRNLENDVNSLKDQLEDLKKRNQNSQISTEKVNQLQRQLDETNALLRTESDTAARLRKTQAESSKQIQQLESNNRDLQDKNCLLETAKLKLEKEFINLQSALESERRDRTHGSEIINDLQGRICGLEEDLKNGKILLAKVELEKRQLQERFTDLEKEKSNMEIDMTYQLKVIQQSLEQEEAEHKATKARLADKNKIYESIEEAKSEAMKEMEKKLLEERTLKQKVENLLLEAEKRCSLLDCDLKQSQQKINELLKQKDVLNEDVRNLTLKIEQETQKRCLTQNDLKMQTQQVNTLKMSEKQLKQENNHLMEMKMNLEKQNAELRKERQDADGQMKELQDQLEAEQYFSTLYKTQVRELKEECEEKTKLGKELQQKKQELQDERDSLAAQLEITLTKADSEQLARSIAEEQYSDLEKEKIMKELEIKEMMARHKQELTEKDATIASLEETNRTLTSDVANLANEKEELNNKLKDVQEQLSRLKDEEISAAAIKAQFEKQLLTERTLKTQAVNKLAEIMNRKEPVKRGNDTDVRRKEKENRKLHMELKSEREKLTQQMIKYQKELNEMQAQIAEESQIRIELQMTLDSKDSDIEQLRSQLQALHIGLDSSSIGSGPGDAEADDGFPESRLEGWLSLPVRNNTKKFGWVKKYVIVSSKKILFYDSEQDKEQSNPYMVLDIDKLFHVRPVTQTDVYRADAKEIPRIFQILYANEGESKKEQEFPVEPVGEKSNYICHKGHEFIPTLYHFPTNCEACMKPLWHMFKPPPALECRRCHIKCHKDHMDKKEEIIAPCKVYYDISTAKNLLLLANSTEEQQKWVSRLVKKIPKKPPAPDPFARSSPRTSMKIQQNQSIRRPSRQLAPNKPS
T2 sequence (Q13464 whole entry): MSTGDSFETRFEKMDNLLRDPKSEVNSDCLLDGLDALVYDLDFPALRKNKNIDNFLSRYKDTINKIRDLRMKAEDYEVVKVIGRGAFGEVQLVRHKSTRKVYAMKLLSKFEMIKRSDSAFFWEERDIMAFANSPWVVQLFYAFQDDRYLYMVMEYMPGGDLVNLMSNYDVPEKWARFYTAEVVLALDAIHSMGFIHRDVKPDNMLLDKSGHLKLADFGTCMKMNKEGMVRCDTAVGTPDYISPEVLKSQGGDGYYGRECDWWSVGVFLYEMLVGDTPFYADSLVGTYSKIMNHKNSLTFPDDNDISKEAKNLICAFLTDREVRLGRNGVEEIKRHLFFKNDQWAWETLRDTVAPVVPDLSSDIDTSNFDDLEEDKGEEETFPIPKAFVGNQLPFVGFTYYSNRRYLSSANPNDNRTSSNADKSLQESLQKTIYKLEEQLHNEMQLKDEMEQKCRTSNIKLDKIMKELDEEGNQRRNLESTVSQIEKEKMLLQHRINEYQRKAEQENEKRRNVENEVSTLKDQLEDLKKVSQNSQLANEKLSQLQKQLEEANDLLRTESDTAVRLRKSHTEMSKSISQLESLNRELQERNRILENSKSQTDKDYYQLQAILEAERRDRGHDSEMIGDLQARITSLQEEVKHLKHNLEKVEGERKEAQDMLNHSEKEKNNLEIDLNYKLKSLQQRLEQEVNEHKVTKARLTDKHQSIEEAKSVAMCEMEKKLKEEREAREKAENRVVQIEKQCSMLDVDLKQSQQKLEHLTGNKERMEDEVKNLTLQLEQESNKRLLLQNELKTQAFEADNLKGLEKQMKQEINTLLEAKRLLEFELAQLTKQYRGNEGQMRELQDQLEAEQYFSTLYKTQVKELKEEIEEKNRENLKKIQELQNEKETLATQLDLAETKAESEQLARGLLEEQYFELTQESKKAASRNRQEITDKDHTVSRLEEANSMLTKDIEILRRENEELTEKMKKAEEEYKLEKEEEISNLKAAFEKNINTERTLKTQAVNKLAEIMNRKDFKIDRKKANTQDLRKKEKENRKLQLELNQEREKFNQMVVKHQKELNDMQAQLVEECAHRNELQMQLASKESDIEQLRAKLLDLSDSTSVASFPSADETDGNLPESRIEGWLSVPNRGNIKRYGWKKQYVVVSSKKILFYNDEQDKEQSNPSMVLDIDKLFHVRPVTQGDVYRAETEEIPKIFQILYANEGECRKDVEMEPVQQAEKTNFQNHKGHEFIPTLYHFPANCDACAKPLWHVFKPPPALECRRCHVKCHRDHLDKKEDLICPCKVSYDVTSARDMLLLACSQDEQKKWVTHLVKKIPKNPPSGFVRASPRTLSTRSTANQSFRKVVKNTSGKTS

Compound	CC50 at 48 h [1] [µM]	AUC(0-t) [2] [ng·h/mL]	Cmax [2] [ng/mL]	IC50 (ROCK2 kinase) [µM]	IC50 (ROCK1 kinase) [µM]	stability in chemical properties ([3]; 25° C./60% humidity and 40° C./75% humidity (sealed and protected from light))	Purity (%), 230 nm, Month 1 ([3]; 25° C./60% humidity) [%]	Purity (%), 230 nm, Month 3 ([3]; 25° C./60% humidity) [%]	Purity (%), 230 nm, Month 1 ([3]; 40° C./75% humidity) [%]	Purity (%), 230 nm, Month 3 ([3]; 40° C./75% humidity) [%]	Purity (%), 230 nm, Day 0 ([3]; Day 0) [%]	Purity (%), 230 nm, Month 2 [4] [%]
Cn1c(C(=O)N2CC(F)(F)C2)cc2c1CN(c1ncc(F)c(Nc3ccc(-c4cn[nH]c4)cc3)n1)CC2 [Compound I, (6-(4-((4-(1H-pyrazol-4-yl)phenyl)amino)-5-fluoropyrimidin-2-yl)-1-methyl-4,5,6,7-tetrahydro-1H-pyrrolo[2,3-c]pyridin-2-yl)(3,3-difluoroazetidin-1-yl)methanone]	> 100	2040	251	0.0365	> 4.5							
Cn1c(C(=O)N2CC(F)(F)C2)cc2c1CN(c1ncc(F)c(Nc3ccc(-c4cn[nH]c4)cc3)n1)CC2.O=C(O)C(O)C(O)C(=O)O [Crystal form I of tartrate]						substantially stable	99.00	99.02	98.95	99.04	98.98	99.18
